Assay results from PMC4457528, “Identification of Novel Small Molecule Inhibitors of Oncogenic RET Kinase” (PLoS ONE, 2015).
Like-named read-outs stand apart in the source and are kept apart here.

Key:
Experiment in all cases: KinomeScan kinase panel, single concentration 10 µM
Type in all cases: binding
KinomeScan kinase panel [1] = target: T1, KinomeScan kinase panel (Homo sapiens, UniProt O75716); conditions: read-out: score (%)
T1 construct: purchased DiscoveRx (KinomeScan)

KinomeScan kinase panel [2] = target: T2, KinomeScan kinase panel (Homo sapiens, UniProt P00519, F317L); conditions: 10 µM, read-out: score (%)
T2 construct: purchased DiscoveRx (KinomeScan)

KinomeScan kinase panel [3] = target: T3, KinomeScan kinase panel (Homo sapiens, UniProt P08631); conditions: HCK, 10 µM; read-out: score (%)
T3 construct: purchased DiscoveRx (KinomeScan)

KinomeScan kinase panel [4] = target: T4, KinomeScan kinase panel (Homo sapiens, UniProt P08922); conditions: read-out: score (%)
T4 construct: purchased DiscoveRx (KinomeScan)

KinomeScan kinase panel [5] = target: T5, KinomeScan kinase panel (Homo sapiens, UniProt P09619); conditions: PDGFRB, 10 µM; read-out: score (%)
T5 construct: purchased DiscoveRx (KinomeScan)

KinomeScan kinase panel [6] = target: T6, KinomeScan kinase panel (Homo sapiens, UniProt P15056, V600E); conditions: BRAF(V600E), 10 µM; read-out: score (%)
T6 construct: purchased DiscoveRx (KinomeScan)

KinomeScan kinase panel [7] = target: T7, KinomeScan kinase panel (Homo sapiens, UniProt P52333); conditions: 10 µM, read-out: score (%)
T7 construct: purchased DiscoveRx (KinomeScan)
T7 sequence (P52333 1-1124): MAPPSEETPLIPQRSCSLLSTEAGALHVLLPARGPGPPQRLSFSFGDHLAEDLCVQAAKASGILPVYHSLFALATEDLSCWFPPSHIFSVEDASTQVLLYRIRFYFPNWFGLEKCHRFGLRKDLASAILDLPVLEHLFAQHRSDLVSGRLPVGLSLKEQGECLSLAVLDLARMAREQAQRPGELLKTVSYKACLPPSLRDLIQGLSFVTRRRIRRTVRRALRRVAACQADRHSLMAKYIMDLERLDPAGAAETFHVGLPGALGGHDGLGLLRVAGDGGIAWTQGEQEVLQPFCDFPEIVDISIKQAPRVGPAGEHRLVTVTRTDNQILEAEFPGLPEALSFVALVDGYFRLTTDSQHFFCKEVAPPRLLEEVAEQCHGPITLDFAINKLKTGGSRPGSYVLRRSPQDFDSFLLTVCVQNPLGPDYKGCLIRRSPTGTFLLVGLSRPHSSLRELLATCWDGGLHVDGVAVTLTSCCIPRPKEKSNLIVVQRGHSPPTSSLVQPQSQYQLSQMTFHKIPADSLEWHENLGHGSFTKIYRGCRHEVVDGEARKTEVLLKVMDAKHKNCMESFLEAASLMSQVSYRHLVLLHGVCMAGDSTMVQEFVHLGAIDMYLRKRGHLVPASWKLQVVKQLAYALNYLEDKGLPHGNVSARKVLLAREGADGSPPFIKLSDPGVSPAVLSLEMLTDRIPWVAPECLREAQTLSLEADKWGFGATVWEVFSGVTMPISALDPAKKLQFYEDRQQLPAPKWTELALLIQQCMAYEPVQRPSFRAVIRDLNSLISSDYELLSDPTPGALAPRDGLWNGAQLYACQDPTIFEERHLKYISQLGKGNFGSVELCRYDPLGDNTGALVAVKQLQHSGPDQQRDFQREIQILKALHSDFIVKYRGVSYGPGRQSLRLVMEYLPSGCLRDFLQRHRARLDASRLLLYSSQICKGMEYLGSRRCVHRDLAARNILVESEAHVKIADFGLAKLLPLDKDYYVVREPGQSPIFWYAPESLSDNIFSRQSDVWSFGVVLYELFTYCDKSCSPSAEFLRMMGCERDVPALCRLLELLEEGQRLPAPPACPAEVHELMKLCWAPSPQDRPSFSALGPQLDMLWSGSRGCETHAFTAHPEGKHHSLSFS

KinomeScan kinase panel [8] = target: T8, KinomeScan kinase panel (Homo sapiens, UniProt P80192); conditions: MLK1, 10 µM; read-out: score (%)
T8 construct: purchased DiscoveRx (KinomeScan)

KinomeScan kinase panel [9] = target: T9, KinomeScan kinase panel (Homo sapiens, UniProt Q00536); conditions: PCTK1, 10 µM; read-out: score (%)
T9 construct: purchased DiscoveRx (KinomeScan)

KinomeScan kinase panel [10] = target: T10, KinomeScan kinase panel (Homo sapiens, UniProt Q86UE8); conditions: read-out: score (%)
T10 construct: purchased DiscoveRx (KinomeScan)

KinomeScan kinase panel [11] = target: T11, KinomeScan kinase panel (Homo sapiens, UniProt Q99759); conditions: MAP3K3, 10 µM; read-out: score (%)
T11 construct: purchased DiscoveRx (KinomeScan)
T11 sequence (Q99759 1-626): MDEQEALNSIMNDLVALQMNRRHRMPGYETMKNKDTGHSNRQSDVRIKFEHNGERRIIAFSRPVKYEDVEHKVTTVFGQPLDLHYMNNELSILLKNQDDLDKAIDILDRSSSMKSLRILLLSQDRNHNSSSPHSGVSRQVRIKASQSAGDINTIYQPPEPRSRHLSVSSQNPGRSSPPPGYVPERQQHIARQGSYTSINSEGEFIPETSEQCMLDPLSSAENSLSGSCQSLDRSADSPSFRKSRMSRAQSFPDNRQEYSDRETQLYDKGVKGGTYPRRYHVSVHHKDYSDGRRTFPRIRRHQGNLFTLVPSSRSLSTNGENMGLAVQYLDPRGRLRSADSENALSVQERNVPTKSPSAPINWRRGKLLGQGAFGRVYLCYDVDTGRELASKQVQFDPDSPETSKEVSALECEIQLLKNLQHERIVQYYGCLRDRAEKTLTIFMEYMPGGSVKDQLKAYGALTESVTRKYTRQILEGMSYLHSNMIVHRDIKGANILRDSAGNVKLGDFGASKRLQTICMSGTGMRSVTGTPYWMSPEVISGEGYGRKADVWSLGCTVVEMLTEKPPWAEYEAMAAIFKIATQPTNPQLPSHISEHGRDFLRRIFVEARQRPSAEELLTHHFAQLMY

KinomeScan kinase panel [12] = target: T12, KinomeScan kinase panel (Homo sapiens, UniProt Q9C098); conditions: DCAMKL3, 10 µM; read-out: score (%)
T12 construct: purchased DiscoveRx (KinomeScan)

KinomeScan kinase panel [13] = target: T13, KinomeScan kinase panel (Homo sapiens, UniProt Q9Y4K4); conditions: MAP4K5, 10 µM; read-out: score (%)
T13 construct: purchased DiscoveRx (KinomeScan)

T10 sequence (Q86UE8 whole entry): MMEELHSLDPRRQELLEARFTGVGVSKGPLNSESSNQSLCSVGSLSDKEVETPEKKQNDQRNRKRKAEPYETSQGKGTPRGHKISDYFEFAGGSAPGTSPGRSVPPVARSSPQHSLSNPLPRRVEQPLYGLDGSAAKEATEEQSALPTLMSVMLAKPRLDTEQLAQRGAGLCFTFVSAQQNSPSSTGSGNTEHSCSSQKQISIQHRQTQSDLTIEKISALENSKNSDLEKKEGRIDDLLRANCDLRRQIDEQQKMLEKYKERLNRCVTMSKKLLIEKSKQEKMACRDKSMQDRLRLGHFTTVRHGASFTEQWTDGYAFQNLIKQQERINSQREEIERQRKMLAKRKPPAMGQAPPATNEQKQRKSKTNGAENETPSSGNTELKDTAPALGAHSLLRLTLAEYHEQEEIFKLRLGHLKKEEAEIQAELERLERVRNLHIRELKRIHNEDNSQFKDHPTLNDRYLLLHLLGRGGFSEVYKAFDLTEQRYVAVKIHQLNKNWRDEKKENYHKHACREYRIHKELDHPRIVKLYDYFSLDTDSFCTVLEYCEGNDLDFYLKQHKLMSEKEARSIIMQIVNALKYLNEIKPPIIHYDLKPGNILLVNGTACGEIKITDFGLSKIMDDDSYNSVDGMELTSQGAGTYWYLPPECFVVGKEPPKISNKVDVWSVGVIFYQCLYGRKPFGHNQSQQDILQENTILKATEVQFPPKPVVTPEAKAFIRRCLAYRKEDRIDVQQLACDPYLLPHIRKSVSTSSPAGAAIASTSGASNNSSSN
T5 sequence (P09619 33-1106): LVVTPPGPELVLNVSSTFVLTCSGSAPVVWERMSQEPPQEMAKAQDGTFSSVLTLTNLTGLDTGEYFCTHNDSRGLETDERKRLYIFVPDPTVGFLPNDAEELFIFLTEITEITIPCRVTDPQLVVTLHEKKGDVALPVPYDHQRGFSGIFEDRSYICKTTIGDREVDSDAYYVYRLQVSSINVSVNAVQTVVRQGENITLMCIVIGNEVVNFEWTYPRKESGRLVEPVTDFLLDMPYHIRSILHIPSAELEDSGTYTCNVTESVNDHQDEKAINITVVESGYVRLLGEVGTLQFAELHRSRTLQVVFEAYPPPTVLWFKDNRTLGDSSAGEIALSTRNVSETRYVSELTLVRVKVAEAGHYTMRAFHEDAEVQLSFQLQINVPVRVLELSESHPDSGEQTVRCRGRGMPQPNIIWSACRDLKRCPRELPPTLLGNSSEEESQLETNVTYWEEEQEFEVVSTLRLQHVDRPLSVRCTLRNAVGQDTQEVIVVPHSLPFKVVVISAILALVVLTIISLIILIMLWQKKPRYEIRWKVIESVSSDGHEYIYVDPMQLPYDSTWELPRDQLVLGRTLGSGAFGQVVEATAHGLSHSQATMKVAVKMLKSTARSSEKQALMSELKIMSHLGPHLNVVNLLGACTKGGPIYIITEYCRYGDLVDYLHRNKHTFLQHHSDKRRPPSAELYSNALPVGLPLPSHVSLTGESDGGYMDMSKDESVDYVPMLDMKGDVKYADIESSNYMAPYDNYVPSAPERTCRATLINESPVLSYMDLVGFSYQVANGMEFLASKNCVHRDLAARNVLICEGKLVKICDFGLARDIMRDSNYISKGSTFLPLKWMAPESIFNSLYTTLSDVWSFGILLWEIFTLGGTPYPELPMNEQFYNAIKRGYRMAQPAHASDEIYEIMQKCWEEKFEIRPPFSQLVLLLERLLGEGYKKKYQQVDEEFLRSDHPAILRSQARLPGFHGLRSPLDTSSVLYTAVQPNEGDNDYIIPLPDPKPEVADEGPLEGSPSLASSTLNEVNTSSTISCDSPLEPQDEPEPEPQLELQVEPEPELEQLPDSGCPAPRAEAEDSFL
T4 sequence (P08922 28-2347): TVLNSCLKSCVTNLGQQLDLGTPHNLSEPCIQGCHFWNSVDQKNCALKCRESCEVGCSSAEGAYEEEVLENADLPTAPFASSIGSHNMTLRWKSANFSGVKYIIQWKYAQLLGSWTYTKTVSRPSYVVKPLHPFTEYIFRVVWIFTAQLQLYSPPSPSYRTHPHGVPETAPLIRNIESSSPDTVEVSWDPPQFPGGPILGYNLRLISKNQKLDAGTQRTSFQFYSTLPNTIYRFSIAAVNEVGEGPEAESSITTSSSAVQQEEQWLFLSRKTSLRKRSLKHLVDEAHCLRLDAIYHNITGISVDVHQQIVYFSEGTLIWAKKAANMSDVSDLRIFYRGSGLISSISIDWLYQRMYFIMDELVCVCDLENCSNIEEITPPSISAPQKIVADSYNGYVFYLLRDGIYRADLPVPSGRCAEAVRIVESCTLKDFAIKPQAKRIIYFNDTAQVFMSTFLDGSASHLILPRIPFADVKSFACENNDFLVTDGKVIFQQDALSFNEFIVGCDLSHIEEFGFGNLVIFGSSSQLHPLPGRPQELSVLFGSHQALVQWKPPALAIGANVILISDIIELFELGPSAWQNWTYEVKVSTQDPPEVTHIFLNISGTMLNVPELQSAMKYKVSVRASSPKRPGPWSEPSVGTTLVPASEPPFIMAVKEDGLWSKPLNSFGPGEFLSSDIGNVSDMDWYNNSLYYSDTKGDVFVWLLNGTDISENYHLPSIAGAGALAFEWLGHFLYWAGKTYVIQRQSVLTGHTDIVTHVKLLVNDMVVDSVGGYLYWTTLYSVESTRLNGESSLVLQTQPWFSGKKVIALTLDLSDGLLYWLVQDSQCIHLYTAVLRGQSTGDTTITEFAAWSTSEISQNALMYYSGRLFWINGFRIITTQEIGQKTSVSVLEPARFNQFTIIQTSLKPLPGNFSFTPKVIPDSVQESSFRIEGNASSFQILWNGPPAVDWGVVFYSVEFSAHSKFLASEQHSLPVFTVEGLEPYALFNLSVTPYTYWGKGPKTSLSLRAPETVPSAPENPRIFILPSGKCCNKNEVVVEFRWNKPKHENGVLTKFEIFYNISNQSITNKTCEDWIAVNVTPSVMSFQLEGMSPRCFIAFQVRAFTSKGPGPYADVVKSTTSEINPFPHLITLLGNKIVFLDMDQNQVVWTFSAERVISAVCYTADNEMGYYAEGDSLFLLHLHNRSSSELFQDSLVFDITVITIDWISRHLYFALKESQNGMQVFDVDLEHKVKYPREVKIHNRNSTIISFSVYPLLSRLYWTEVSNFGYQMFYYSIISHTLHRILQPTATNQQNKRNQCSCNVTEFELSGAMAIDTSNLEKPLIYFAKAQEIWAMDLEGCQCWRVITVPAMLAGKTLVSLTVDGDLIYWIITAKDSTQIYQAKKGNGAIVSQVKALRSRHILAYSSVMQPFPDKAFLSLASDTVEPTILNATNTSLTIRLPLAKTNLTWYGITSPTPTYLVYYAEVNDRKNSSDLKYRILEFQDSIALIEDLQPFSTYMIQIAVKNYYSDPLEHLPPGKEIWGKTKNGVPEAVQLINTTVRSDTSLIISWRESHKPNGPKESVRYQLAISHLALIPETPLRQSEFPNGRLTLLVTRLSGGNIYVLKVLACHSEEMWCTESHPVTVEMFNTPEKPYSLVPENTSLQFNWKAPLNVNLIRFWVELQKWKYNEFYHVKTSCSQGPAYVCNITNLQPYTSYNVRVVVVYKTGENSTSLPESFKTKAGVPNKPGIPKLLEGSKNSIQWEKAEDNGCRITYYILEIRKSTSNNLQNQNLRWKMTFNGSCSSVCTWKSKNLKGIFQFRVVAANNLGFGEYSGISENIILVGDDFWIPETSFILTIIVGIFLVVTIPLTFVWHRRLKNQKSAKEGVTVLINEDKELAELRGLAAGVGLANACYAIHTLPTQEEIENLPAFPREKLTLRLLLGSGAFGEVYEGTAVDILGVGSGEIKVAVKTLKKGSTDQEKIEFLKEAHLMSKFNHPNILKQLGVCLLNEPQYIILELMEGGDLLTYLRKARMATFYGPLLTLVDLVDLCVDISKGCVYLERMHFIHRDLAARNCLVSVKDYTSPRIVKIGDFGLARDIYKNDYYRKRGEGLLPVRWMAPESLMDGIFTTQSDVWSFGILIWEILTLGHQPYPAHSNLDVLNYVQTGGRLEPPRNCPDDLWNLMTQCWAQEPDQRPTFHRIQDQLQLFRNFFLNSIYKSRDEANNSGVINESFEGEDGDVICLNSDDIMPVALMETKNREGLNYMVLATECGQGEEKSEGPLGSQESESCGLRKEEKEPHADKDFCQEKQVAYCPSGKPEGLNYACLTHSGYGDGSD
T1 sequence (O75716 whole entry): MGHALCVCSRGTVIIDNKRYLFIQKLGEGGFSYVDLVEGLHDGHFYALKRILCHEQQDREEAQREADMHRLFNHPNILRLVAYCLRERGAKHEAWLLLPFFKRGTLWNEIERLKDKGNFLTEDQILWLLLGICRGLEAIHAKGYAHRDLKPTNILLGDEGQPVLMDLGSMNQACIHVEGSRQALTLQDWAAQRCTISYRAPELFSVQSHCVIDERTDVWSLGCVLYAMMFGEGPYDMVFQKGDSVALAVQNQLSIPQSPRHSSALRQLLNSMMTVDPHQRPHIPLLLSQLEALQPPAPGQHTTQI
T3 sequence (P08631 whole entry): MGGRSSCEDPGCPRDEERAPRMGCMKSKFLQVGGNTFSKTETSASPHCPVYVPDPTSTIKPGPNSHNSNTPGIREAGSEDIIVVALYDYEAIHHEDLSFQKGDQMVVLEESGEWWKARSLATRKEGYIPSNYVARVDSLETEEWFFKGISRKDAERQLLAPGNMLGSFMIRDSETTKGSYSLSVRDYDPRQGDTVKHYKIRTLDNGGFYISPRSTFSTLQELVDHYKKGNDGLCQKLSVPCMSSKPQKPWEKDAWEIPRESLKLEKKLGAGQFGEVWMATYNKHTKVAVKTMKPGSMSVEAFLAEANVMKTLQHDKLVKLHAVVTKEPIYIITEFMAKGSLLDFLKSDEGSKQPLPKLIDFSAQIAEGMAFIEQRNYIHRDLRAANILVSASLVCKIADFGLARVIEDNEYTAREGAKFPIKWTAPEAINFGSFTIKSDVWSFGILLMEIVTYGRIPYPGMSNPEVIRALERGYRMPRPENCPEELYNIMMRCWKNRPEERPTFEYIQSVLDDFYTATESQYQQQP

remaining binding at 10 µM (KinomeScan kinase panel [1]; STK16, 10 µM)	remaining binding at 10 µM (KinomeScan kinase panel [7]; JAK3(Kin.Dom.2))	remaining binding at 10 µM (KinomeScan kinase panel [10]; TLK2, 10 µM)	Compound	remaining binding at 10 µM (KinomeScan kinase panel [1]; kinase STK16, 10 µM)	remaining binding at 10 µM (KinomeScan kinase panel [2]; ABL1(F317L)-nonphosphorylated)	remaining binding at 10 µM (KinomeScan kinase panel [2]; ABL1(F317L)-phosphorylated)	remaining binding at 10 µM (KinomeScan kinase panel [3])	remaining binding at 10 µM (KinomeScan kinase panel [4]; kinase ROS1, 10 µM)	remaining binding at 10 µM (KinomeScan kinase panel [5])	remaining binding at 10 µM (KinomeScan kinase panel [6])	remaining binding at 10 µM (KinomeScan kinase panel [7]; JAK3(JH1domain-catalytic))	remaining binding at 10 µM (KinomeScan kinase panel [8])	remaining binding at 10 µM (KinomeScan kinase panel [9])	remaining binding at 10 µM (KinomeScan kinase panel [10]; kinase TLK2, 10 µM)	remaining binding at 10 µM (KinomeScan kinase panel [11])	remaining binding at 10 µM (KinomeScan kinase panel [12])	remaining binding at 10 µM (KinomeScan kinase panel [13])	remaining binding at 10 µM (KinomeScan kinase panel [2]; ABL1(F317L))	remaining binding at 10 µM (KinomeScan kinase panel [4]; ROS1, 10 µM)
			CCN1CCN(Cc2ccc(NC(=O)c3ccc(C)c(C#Cc4cccnc4)c3)cc2C(F)(F)F)CC1 [XMD15-44]	100%	0%	0.85%	0.05%	46%	0%	0.05%	2.3%	> 30%	8.4%	100%	1.4%	> 30%	3%		
18%	3.5%	> 30%	CCN1CCN(Cc2ccc(NC(=O)c3ccc(C)c(/C=C/c4cnc5[nH]ccc5c4Cl)c3)cc2C(F)(F)F)CC1 [HG-6-63-01, (E)-3-(2-(4-chloro-1H-pyrrolo[2,3-b]pyridin-5-yl)vinyl)-N-(4-((4-ethylpiperazin-1-yl)methyl)-3-(trifluoromethyl)phenyl)-4-methylbenzamide]				0.3%		0%	0.2%		0.6%	> 30%		4%	2.5%	1.8%	0.1%	> 30%
			CCN1CCN(Cc2ccc(NC(=O)c3ccc(C)c(NC(=O)c4cncc(-c5cccs5)c4)c3)cc2C(F)(F)F)CC1 [ALW-II-41-27]	> 30%			0.2%		0%	0.55%	3.7%	> 30%	> 30%	> 30%	0.25%	> 30%	0.75%	0.2%	> 30%
